# Data: patent US8034810B2, “Arylsulfonamido-substituted hydroxamic acid derivatives” (Novartis AG, priority 1999, dated 2011)
# Structures can show the parent of a compound that is named as a salt.
# Target: T1, MMP1 (collagenase 1) (Homo sapiens, UniProt P03956)
# T1 construct: made in house; host or cells: mouse C127 cells, vector pBPV-MMT, secreted into culture medium
# T1 sequence (P03956 100-469): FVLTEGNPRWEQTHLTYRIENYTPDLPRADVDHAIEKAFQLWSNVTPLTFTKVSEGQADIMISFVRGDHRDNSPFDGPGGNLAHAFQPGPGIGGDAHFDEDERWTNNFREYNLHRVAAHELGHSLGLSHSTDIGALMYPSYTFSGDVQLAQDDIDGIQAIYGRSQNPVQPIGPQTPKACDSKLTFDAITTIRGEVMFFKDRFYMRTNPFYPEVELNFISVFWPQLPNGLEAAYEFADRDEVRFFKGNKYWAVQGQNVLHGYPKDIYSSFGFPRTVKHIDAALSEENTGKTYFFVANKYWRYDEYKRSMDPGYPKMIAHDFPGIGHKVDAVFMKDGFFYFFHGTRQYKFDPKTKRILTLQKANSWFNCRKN
# Experiment: In vitro inhibition of MMP1 (collagenase 1), fluorogenic peptide substrate
# Assay type: biochemical
# Settings: APMA-activated recombinant human collagenase; substrate 10 μM; 37° C.
# Protocol: The inhibitory activities of compounds of formula I on MT1-MMP, MMP1 (collagenase 1) and MMP2 (gelatinase A) can be determined as follows:
# Stock solutions of substrate (MCA-Pro-Leu-Gly-Leu-Dpa-Ala-Arg-NH2, Knight, C. G., Willenbrock, F., Murphy, G., A novel coumarin-labelled peptide for sensitive continuous assays of the matrix metalloproteinases, FEBS lett., 296, 263-266, (1992)), are prepared in 100% DMSO at a concentration 1.0 mM. Stock solutions of inhibitors are prepared in 100% DMSO. The inhibitor is diluted into the assays from a solution in 100% DMSO, and controls substitute an equal volume of DMSO so that the final DMSO concentration from inhibitor and substrate dilutions in all assays is 6.0%. Assays are performed in assay buffer (150 mM NaCl, 10 mM CaCl2, 50 mM Tris-Cl pH7.5, 0.05% Brij-35) containing 6.0% DMSO once the substrate and inhibitor are diluted into it. The substrate concentration used in the assays is 10 μM. The test is carried out at 37° C. The fluorescence changes are monitored using an excitation wavelength of 320 nm and an emission wavelength of […]. The reaction mixture is added in duplicate to appropriate wells of a 96 well microfluor plate. The reaction mixture is preincubated with the inhibitor for 30 min, the reaction is started by the addition of MMP enzyme and the fluorescence intensity is measured for 10 min. A time point that is on a linear part of the curve is chosen to determine the activity. The inhibition results are expressed as the inhibitor concentrations that produced 50% inhibition (IC50) of the activity in the control (non-inhibited) reaction. In this test, the compounds of the formula I and their pharmacologically acceptable salts have an inhibiting concentration IC50 [μmol/litre] of 0.0001 and 0.030, usually of 0.0002 to 0.010, for MMP2 and an inhibiting concentration IC50 [μmol/litre] of 0.0005 and 0.125, usually of 0.001 to 0.05, for MT1-MMP.
# Plasmid: The cDNA for human collagenase is generated by PCR of cDNA derived from RNA isolated from human U937 cells (ATCC# CRL-2367). The primers, used to generate this cDNA, are […] and AAGGCGGCCGCA […], corresponding to nucleotides 58 to 1526 of the reported cDNA sequence, GenBank accession number X05231. The resulting cDNA fragment is subcloned into Not I site of a mammalian expression vector pBPV-MMT (Matthias, P. et al., J. Mol. Biol. 1986, 187(4):557-68).
# C127 cells (ATCC-mouse mammary tumor cell line) are grown in Dulbecco's Modified Essential Medium supplemented with 10% heat inactivated fetal bovine serum and 1× antibiotic-antimycotic solution at 37° C. in a humidified CO2 incubator. Cells seeded at 8×10^5 in 100 mm dishes are transfected using a calcium phosphate precipitation method. 5 h prior to transfection, medium is replaced with fresh medium. Each dish is transfected with 15 μg of the expression vector. Cells are washed twice with PBS 16-18 h after transfection and are incubated in growth medium for an additional 48 h. Clones are then selected by incubation with the Neomycin related antibiotic G418 at a concentration of 400 μg/ml. Media from selected clones are analyzed for collagenase expression by an enzymatic assay. Expression and Purification: 16 liters of culture medium are concentrated to 1.6 liters and the enzyme is isolated by the procedures described by Wilhelm et al. (Proc. Natl. Acad. Sci. (USA). 1987; 84: 6725-29). The final product is further purified on a Superose G-75 (Pharmacia/LKB, Piscataway, N.J.) gel filtration column equilibrated in the assay buffer containing 0.15 M NaCl. Enzyme is pooled and stored in aliquots at −70° C. Recombinant procollagenase (43-45 kDa) is activated with 1 mM APMA (Aminophenylmercuric acetate, ICN Pharmaceuticals) for 2 h at 37° C., and the APMA is removed by extensive dialysis against the assay buffer containing 0.15M NaCl. The activated enzyme (˜36-kDa) is stored frozen at −70° C. until use.
row,IC50 [µM],Compound
1,3.69,"C=CCCOc1ccc(S(=O)(=O)N(CC(=O)NO)Cc2cccc(F)n2)cc1 [Example 83a, 2-([4-But-3-enyloxy-benzenesulfonyl]-(6-fluoro-pyridine-2-yl)methyl-amino)-N-hydroxyacetamide]"
2,5.53,"C=CCCOc1ccc(S(=O)(=O)N(CC(=O)NO)Cc2ccc(N3CCCC3)cc2)cc1 [Example 84a, 2-[(4-But-3-enyloxy-benzenesulfonyl)-(4-(pyrrolidin-1-yl)-benzyl)-amino]-N-hydroxyacetamide-hydrochloride]"

# More lines, now with the values behind:
row,Compound,IC50 [µM]
1,"2-[(Cyclopropylmethoxy-benzenesulfonyl)-(4-[1,2,4]triazol-1-yl-benzyl)-amino]-N-hydroxyacetamide-hydrochloride salt [Example 82b]",0.965
2,"COc1ccc(CN(CC(=O)NO)S(=O)(=O)c2ccc(OCCCCl)cc2)cc1 [Example 68, 2-{[4-(3-chloro-propoxy)-benzenesulfonyl]-(4-methoxy-benzyl)amino}-N-hydroxy-acetamide]",0.622
3,"C#CCOc1ccc(S(=O)(=O)N(CC(=O)NO)Cc2ccc(OC)cc2)cc1 [Example 75, [(4-methoxy-benzyl)-[4-prop-2-ynyloxy-benzenesulfonyl]-amino]-N-hydroxy-acetamide]",0.069
4,"C=CCCOc1ccc(S(=O)(=O)N(CC(=O)NO)Cc2ccc(-n3cncn3)cc2)cc1 [Example 79, 2-[(4-but-3-enyloxy-benzenesulfonyl)-(4-[1,2,4]triazol-1-yl-benzyl)-amino]-N-hydroxy-acetamide-hydrochloride salt]",5.85
5,"C=CCCOc1ccc(S(=O)(=O)N(CC(=O)NO)Cc2ccc(-n3ccnc3)cc2)cc1 [Example 80, 2-[(4-But-3-enyloxy-benzenesulfonyl)-(4-imidazol-1-yl-benzyl)-amino]-N-hydroxy-acetamide-hydrochloride]",2.61
6,"C=CCCOc1ccc(S(=O)(=O)N(CC(=O)NO)Cc2ccc(N3CCOCC3)cc2)cc1 [Example 81, 2-[(4-But-3-enyloxy-benzenesulfonyl)-(4-morpholin-4-yl-benzyl)-amino]-N-hydroxy-acetamide-hydrochloride]",4.29
7,O=C(CN(Cc1ccc(-n2cncn2)cc1)S(=O)(=O)c1ccc(OCCC2CC2)cc1)NO [Example 82a],4.21
8,O=C(CN(Cc1ccc(-n2cncn2)cc1)S(=O)(=O)c1ccc(OCc2ccoc2)cc1)NO [Example 82c],5.1
